From patent US20200268804A1, “METHODS AND COMPOSITIONS TO MAINTAIN STEM CELL QUIESCENCE” (The Board of Trustees of the Leland Stanford Junior …, priority 2016, published 2020) come the findings set out here.

The test has as its system quiescent MuSCs. Nature of the test: Q-RT-PCR screening of candidate molecules for promotion of MuSC quiescence. Format: cell-based, mouse. Conditions: 500 quiescent MuSCs cultured 2.5 days with the molecule; gene expression signature. The text has this:
FIG. 8. Screening of molecules titrated at different concentrations. Heat map analysis of gene expression profiles obtained from MuSCs cultured in different concentrations of candidate molecules. In 96 well plates, 500 MuSCs were directly isolated by FACS and cultured in the presence of the candidate molecules titrated at different concentrations. After 2.5 days, cells were collected for combinatorial Q-RT-PCR to screen for the conditions that result mostly closely resemble freshly isolated MuSCs based on the gene expression profiles. A heat map for absolute deviations from expression levels of freshly isolated quiescent MuSCs (QSC) is shown. On the X axis, the molecules tested and the different dilutions employed from the working concentrations are indicated as in FIG. 16. On the Y axis the names of the genes that were tested are listed. The gene names were organized in general functional groups. Each functional group is based on the main function and role in MuSCs.
Knowing that quiescent MuSCs have a unique transcriptional signature, we employed combinatorial QRT-PCR to screen for molecules that, when added to the medium, would promote MuSC quiescence. […]
Single Cell Q-RT-PCR. […] Biomark data was analyzed using Q-RT-PCR Analysis software (Fluidigm). […] For each amplicon, a limit of detection (LOD) was determined by running 10-fold serial dilutions of embryonic cDNA in 6 replicates. […]

As to `Nc1nc(Nc2ccc(S(N)(=O)=O)cc2)nn1C(=O)c1c(F)cccc1F` [JMJ-7706621], the quiescence-promoting activity result is “novel quiescence-promoting activity”.
